Among the test systems are CAKI-1 renal; HCT-116 colon; K-562 leukemia; MALME-3M melanoma; MDA-MB-435; MOLT-4 leukemia; NCI-H522 lung; OVCAR-8 ovarian; RXF 393 renal; SR leukemia.
Holding throughout (test): NCI-60 cell line screen, 48 h

Each structure is given as a SMILES string.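 Interpolation was linear, between the two tested concentrations surrounding the appropriate level; five concentrations were tested over 48 hours in 96-well plates. The concentration for 50% growth inhibition is given as GI50. Definition used: TGI = concentration required for complete inhibition of growth.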 Where only a bound is given, the exact number is not on record here.

Turning to `CNC(=O)/C(=C/c1ccc(OC)cc1)c1cc(OC)c(OC)c(OC)c1`, the TGI is greater than 100 µM with CAKI-1 renal; greater than 72.4 µM in the assay on HCT-116 colon; greater than 80.9 µM with K-562 leukemia; greater than 54.5 µM in the assay on MALME-3M melanoma; 2.42 µM in the assay with MDA-MB-435; greater than 100 µM in the assay with MOLT-4 leukemia. The TGI is 4.39 µM in the assay on NCI-H522 lung, 55.3 µM in the assay on OVCAR-8 ovarian, 11.8 µM with RXF 393 renal and greater than 31.1 µM with SR leukemia.

On to `Cc1ccc(N(/C=C/C(=O)C(F)(F)F)CC(=O)c2ccc(Cl)c(Cl)c2)cc1`, for which the GI50 is 12.4 µM in the assay with CAKI-1 renal; 4.3 µM with HCT-116 colon; 3.37 µM in the assay with K-562 leukemia; 6 µM with MALME-3M melanoma; 1.92 µM with MDA-MB-435; 4.48 µM with MOLT-4 leukemia. Also, the GI50 is 5.16 µM in the assay with NCI-H522 lung, 14.1 µM in the assay on OVCAR-8 ovarian, 3.82 µM in the assay on RXF 393 renal and 2.97 µM with SR leukemia. Further, the TGI in the assay with CAKI-1 renal came out at 24.9 µM; in the assay on HCT-116 colon, 17.7 µM; in the assay with K-562 leukemia, 11.7 µM; in the assay with MALME-3M melanoma it was 20.6 µM; with MDA-MB-435 it was 3.82 µM; in the assay on MOLT-4 leukemia it was 19.9 µM. The TGI in the assay with NCI-H522 lung was 17.8 µM; in the assay with OVCAR-8 ovarian, 27.1 µM; with RXF 393 renal it was 19 µM; with SR leukemia, 12.6 µM.

For the compound `Cn1ccc2c3c(=O)cc[nH]c3ccc21`, the GI50 in the assay with CAKI-1 renal is 32.4 µM; in the assay on HCT-116 colon, greater than 100 µM; in the assay with K-562 leukemia, greater than 100 µM; with MALME-3M melanoma, greater than 100 µM; in the assay on MDA-MB-435, greater than 100 µM; in the assay on MOLT-4 leukemia it was greater than 100 µM. Moreover, the GI50 in the assay with NCI-H522 lung, in the assay on OVCAR-8 ovarian, in the assay on RXF 393 renal and in the assay with SR leukemia was greater than 100 µM throughout. The TGI was 95.1 µM in the assay with CAKI-1 renal; greater than 100 µM in the assay with HCT-116 colon; greater than 100 µM in the assay with K-562 leukemia; greater than 100 µM with MALME-3M melanoma; greater than 100 µM with MDA-MB-435; greater than 100 µM in the assay on MOLT-4 leukemia. The TGI in the assay with NCI-H522 lung, with OVCAR-8 ovarian, in the assay with RXF 393 renal and with SR leukemia was greater than 100 µM each time.

As for `CC(C)C[C@H]1C(=O)N2CCC[C@H]2[C@]2(O)O[C@](NC(=O)[C@@H]3C=C4c5cccc6[nH]c(Br)c(c56)C[C@H]4N(C)C3)(C(C)C)C(=O)N12`, the TGI in the assay on CAKI-1 renal, in the assay with HCT-116 colon, in the assay with K-562 leukemia, in the assay on MALME-3M melanoma, in the assay on MDA-MB-435 and in the assay on MOLT-4 leukemia was greater than 100 µM in each case. Further, the TGI in the assay on NCI-H522 lung, in the assay with OVCAR-8 ovarian, in the assay with RXF 393 renal and in the assay on SR leukemia was greater than 100 µM each time.

`OCc1ncc(-c2ccccc2)s1`: the GI50 in the assay with CAKI-1 renal, in the assay on HCT-116 colon, with K-562 leukemia, in the assay on MALME-3M melanoma, in the assay on MDA-MB-435 and in the assay with MOLT-4 leukemia was greater than 100 µM throughout. The GI50 in the assay on NCI-H522 lung, with OVCAR-8 ovarian, with RXF 393 renal and with SR leukemia was greater than 100 µM in each case. Also, the TGI in the assay with CAKI-1 renal, in the assay on HCT-116 colon, with K-562 leukemia, in the assay on MALME-3M melanoma, with MDA-MB-435 and in the assay with MOLT-4 leukemia was greater than 100 µM in each case. Further, the TGI in the assay with NCI-H522 lung, with OVCAR-8 ovarian, in the assay with RXF 393 renal and in the assay with SR leukemia was greater than 100 µM in each case.

In the case of `C=C1C(=O)O[C@H]2[C@H]1CC/C(COC(=O)C(=O)c1c[nH]c3ccc(Cl)cc13)=C\CC[C@@]1(C)O[C@@H]21`, the GI50 is 2.81 µM in the assay on CAKI-1 renal; 1.65 µM with HCT-116 colon; 1.58 µM in the assay with K-562 leukemia; 1.74 µM with MALME-3M melanoma; 1.8 µM in the assay with MDA-MB-435; 0.778 µM in the assay with MOLT-4 leukemia. Moreover, the GI50 is 1.53 µM in the assay with NCI-H522 lung, 2.32 µM in the assay with OVCAR-8 ovarian, 1.4 µM in the assay on RXF 393 renal and 0.342 µM in the assay with SR leukemia. The TGI in the assay on CAKI-1 renal was 10.9 µM; in the assay on HCT-116 colon, 3.23 µM; with K-562 leukemia, 6.18 µM; with MALME-3M melanoma, 3.47 µM; with MDA-MB-435 it was 4.23 µM; with MOLT-4 leukemia, 5.47 µM. In addition, the TGI was 3.24 µM in the assay with NCI-H522 lung, 6.82 µM with OVCAR-8 ovarian, 2.79 µM in the assay on RXF 393 renal and 12.2 µM in the assay with SR leukemia.

Turning to `CC(=O)OC1CC2(O)C(CCC3(C)C(c4ccc(=O)oc4)CCC32O)C2(C)CCC(OC3OC(CO)C(O)C(O)C3O)C=C12` (stereo unspecified), the GI50 is 0.0306 µM with CAKI-1 renal; 0.0111 µM in the assay with HCT-116 colon; 0.0295 µM in the assay on K-562 leukemia; 0.0245 µM in the assay with MALME-3M melanoma; 0.0342 µM with MDA-MB-435; less than 0.01 µM with MOLT-4 leukemia. Also, the GI50 in the assay on NCI-H522 lung is less than 0.01 µM; in the assay on OVCAR-8 ovarian, 0.0294 µM; in the assay on RXF 393 renal, 0.0199 µM; in the assay with SR leukemia it was 0.015 µM. The TGI came to 0.131 µM in the assay with CAKI-1 renal; 0.105 µM with HCT-116 colon; 0.175 µM in the assay with K-562 leukemia; 0.0593 µM in the assay on MALME-3M melanoma; 0.139 µM in the assay with MDA-MB-435; 0.015 µM in the assay on MOLT-4 leukemia. Also, the TGI with NCI-H522 lung was determined as 0.148 µM; with OVCAR-8 ovarian, 0.126 µM; with RXF 393 renal it was 0.0538 µM; with SR leukemia, 0.0541 µM.

In the case of `Cc1ccc(NC(=O)N2CCCCC2)cc1[N+](=O)[O-]`, the GI50 in the assay on CAKI-1 renal, in the assay with HCT-116 colon, in the assay on K-562 leukemia, in the assay on MALME-3M melanoma, in the assay on MDA-MB-435 and with MOLT-4 leukemia was greater than 100 µM throughout. Besides, the GI50 with NCI-H522 lung is 87.1 µM; in the assay with OVCAR-8 ovarian, greater than 100 µM; in the assay on RXF 393 renal it was greater than 100 µM; with SR leukemia, greater than 100 µM. Besides, the TGI with CAKI-1 renal, with HCT-116 colon, in the assay with K-562 leukemia, in the assay on MALME-3M melanoma, in the assay on MDA-MB-435 and in the assay on MOLT-4 leukemia was greater than 100 µM each time. In addition, the TGI in the assay with NCI-H522 lung, in the assay with OVCAR-8 ovarian, in the assay with RXF 393 renal and in the assay on SR leukemia was greater than 100 µM each time.

Regarding `O=C1c2ccccc2C(=O)c2sc(Nc3ccc(Cl)cc3)nc21`, the TGI amounted to 5.86 µM with CAKI-1 renal; 3.4 µM with HCT-116 colon; 5.12 µM with K-562 leukemia; 3.25 µM in the assay with MALME-3M melanoma; 2.69 µM in the assay on MDA-MB-435; 3.75 µM in the assay with MOLT-4 leukemia. The TGI with NCI-H522 lung is 3.28 µM; with OVCAR-8 ovarian it was 4.49 µM; in the assay on RXF 393 renal, 3.65 µM; in the assay on SR leukemia, 5.84 µM. In the assay with MDA-MB-435, the GI50 was 1.29 µM.

For the compound `N#CSCC1CC(O)(c2ccccc2)CC(c2ccc(Cl)cc2)O1` (stereo unspecified), the GI50 is 3.2 µM with CAKI-1 renal; 1.62 µM with HCT-116 colon; 2.41 µM in the assay on K-562 leukemia; 2.65 µM with MALME-3M melanoma; 1.9 µM in the assay with MDA-MB-435; 1.29 µM with MOLT-4 leukemia. Moreover, the GI50 in the assay on NCI-H522 lung is 1.36 µM; with OVCAR-8 ovarian, 1.98 µM; in the assay on RXF 393 renal it was 1.94 µM; with SR leukemia it was 1.65 µM. For the same compound, the TGI in the assay on CAKI-1 renal worked out at 9.51 µM; in the assay with HCT-116 colon, 3.1 µM; with K-562 leukemia, 9.77 µM; with MALME-3M melanoma, 7.35 µM; in the assay on MDA-MB-435, 4.8 µM; with MOLT-4 leukemia, 5 µM. Moreover, the TGI in the assay on NCI-H522 lung was found to be 2.83 µM; with OVCAR-8 ovarian it was 3.94 µM; in the assay on RXF 393 renal, 3.72 µM; in the assay with SR leukemia, 5.02 µM.

Consider `CC(C)c1ccc(/C=N/N=C(N)N)cc1`, for which the GI50 was 6.31 µM in the assay with CAKI-1 renal; 3.34 µM with HCT-116 colon; 4.16 µM with K-562 leukemia; 5.56 µM in the assay with MALME-3M melanoma; 1.63 µM with MDA-MB-435; 5.17 µM with MOLT-4 leukemia. Moreover, the GI50 is 3.22 µM in the assay with NCI-H522 lung, 10.8 µM with OVCAR-8 ovarian, 3.8 µM with RXF 393 renal and 3.31 µM with SR leukemia. Further, the TGI in the assay on CAKI-1 renal turned out to be 22 µM; with HCT-116 colon, 11.8 µM; in the assay on K-562 leukemia, 16.2 µM; in the assay with MALME-3M melanoma, 21.1 µM; in the assay on MDA-MB-435 it was 4.72 µM; with MOLT-4 leukemia it was 32.6 µM. Moreover, the TGI with NCI-H522 lung is 12.9 µM; in the assay with OVCAR-8 ovarian, 28.3 µM; with RXF 393 renal, 16.6 µM; in the assay with SR leukemia it was 12.7 µM.

For `N=C1N=C(N)S/C1=C\c1ccc2ncccc2c1`, the GI50 in the assay with CAKI-1 renal, in the assay on HCT-116 colon, in the assay with K-562 leukemia, with MALME-3M melanoma, in the assay with MDA-MB-435 and in the assay on MOLT-4 leukemia was greater than 25 µM in each case. In addition, the GI50 in the assay on NCI-H522 lung, in the assay on OVCAR-8 ovarian, in the assay on RXF 393 renal and in the assay on SR leukemia was greater than 25 µM each time. In addition, the TGI in the assay on CAKI-1 renal, with HCT-116 colon, in the assay with K-562 leukemia, in the assay on MALME-3M melanoma, with MDA-MB-435 and in the assay on MOLT-4 leukemia was greater than 25 µM throughout. For the same compound, the TGI with NCI-H522 lung, in the assay on OVCAR-8 ovarian, with RXF 393 renal and in the assay with SR leukemia was greater than 25 µM throughout.

The record behind these values is PubChem BioAssay (NCI).
